Our source for the EC50 and Ki values is US20240400579A1, “SPIROCYCLIC MODULATORS OF CHOLESTEROL BIOSYNTHESIS AND THEIR USE FOR PROMOTING REMYELINATION” (GENENTECH, INC., priority 2021, published 2024).

In one assay the test system is EpiSC-derived OPCs. The assay is described as follows: In vitro phenotypic screening of OPCs, MBP high-content imaging. Format: cell-based, mouse. The note with it: Mus musculus, 72 h, percentage of MBP+ oligodendrocytes; 3 days; 0.5 nM to 1000 nM; read-out: mOPC EC50. The method, then:
(§1) To assess effects of treatments on OPCs, all treatments were assayed in two or more independent platings of epiblast stem cell-derived OPCs (EpiSC). EpiSC-derived OPCs were obtained using in vitro differentiation protocols and culture conditions described previously (Najm et al, 2011, Nature Methods). OPCs were expanded and frozen down in aliquots. OPCs were thawed into growth conditions for at least one passage before use in further assays.
EpiSC-derived OPCs were grown and expanded in poly-L-ornithine (PO) and laminin-coated flasks in N2B27 media (DMEM/F12 (Gibco), N2-MAX (R&D Systems), B-27 (ThermoFisher), and GlutaMax (Gibco)) supplemented with FGF2 ([…], R&D systems, 233-FB-025) and PDGF-AA ([…], R&D systems, 233-AA-050) before harvesting for experiments. The cells were seeded onto poly-L-ornithine or poly-D-lysine coated CellCarrier Ultra plates (PerkinElmer) coated with laminin (Sigma, L2020) at a density of 150,000/cm^2 in N2B27 media without growth factors. For dose-response testing, a 1000× compound stock in dimethyl sulphoxide (DMSO) was added to assay plates, resulting in 8-point dose curves with final concentrations between 1000 nM and 0.5 nM. Positive controls and DMSO vehicle controls were included in each assay plate. Cells were incubated under standard conditions (37° C., 5% CO2) for 3 days and fixed with 4% paraformaldehyde (PFA) in phosphate buffered saline (PBS) for 20 min. Fixed plates were washed with PBS, permeabilized with 0.1% Triton X-100, and blocked with 10% donkey serum (v/v) in PBS for 40 min. Then, cells were labelled with MBP antibodies (Abcam, ab7349; 1:200) for 2 h at room temperature, washed with PBS, and stained with Alexa Fluor conjugated secondary antibodies (1:500) for 45 min. Nuclei were visualized by DAPI staining (Sigma; 1 μg/ml), followed by further PBS washes.
Cells and cell culture plates were imaged on the Operetta High Content Imaging and Analysis system (PerkinElmer). Analysis (PerkinElmer Harmony and Columbus software) began by identifying intact nuclei stained by DAPI. The peri-nuclear region of each cell was then cross-referenced with the mature myelin protein (MBP) stain to identify oligodendrocyte nuclei, and from this the percentage of oligodendrocytes was calculated. EC50 values were calculated using The Levenberg-Marquardt algorithm to fit a Hill equation to dose-response data (0.5 nM to 1000 nM).

For assay [1], the system named is zymostenol accumulation in EpiSC-derived OPCs (EBP). Kind of assay: GC/MS-based sterol profiling, zymostenol accumulation. The note with it: Mus musculus, 24 h, 8 doses from 0.15 nM to 333 nM, read-out: mZymo GCMS EC50. Format: cell-based, mouse. The method, then: as §1
Sterols were monitored using a modified Folch wash protocol (Hubler et al, 2018, Nature). EpiSC-derived OPCs were plated at 100,000 cells per well in PO— and laminin-coated 96-well plates in N2B27 media without growth factors. After 24 hours, cells were rinsed with saline and plates were frozen. Cholesterol-d7 standard was then added to each well before drying under nitrogen stream and derivatization with 55 μl of bis(trimethylsilyl) trifluoroacetamide. After derivatization, 2 μl were analyzed by gas chromatography/mass spectrometry using an Agilent 5973 Network Mass Selective Detector equipped with a 6890 gas chromatograph system and a HP-5MS capillary column (30 m x 0.25 mm×[…]). Samples were analyzed in full scan mode using electron impact ionization; ion fragment peaks were integrated to calculate sterol abundance, and quantitation was relative to cholesterol-d7. The following ion fragments were used to quantitate each metabolite: cholesterol-d7 (465), FF-Mas (482), cholesterol (368), zymostenol (458), zymosterol (456), Desmosterol (456, 343), 7-dehydrocholesterol (456, 325), lanosterol (393), lathosterol (458), 14-dehydrozymostenol (456, 351). […] All standards were obtained from Avanti Polar Lipids unless otherwise indicated. Calibration curves were generated by injecting varying concentrations of sterol standards and maintaining a fixed amount of cholesterol-D7. For normalized zymostenol accumulation results, the total amount of zymostenol measured after drug treatment was divided by the total amount of zymostenol accumulated after 24 hr treatment with 100 nM positive control reference.

In assay [2] the target is human emopamil binding protein and human 7-dehydrocholesterol reductase co-expressing cell membrane (Homo sapiens (Human), UniProt Q15125). The assay is described as follows: hEBP-DHCR7 radioligand filtration binding assay with [3H]-Compound 118A*. The note with it: radioligand [3H]-Compound 118A*; HEK293 membrane co-expressing hEBP and DHCR7. The method, then:
Membrane Preparation: human emopamil binding protein and human 7-dehydrocholesterol reductase co-expressing cells were generated by transient transfecting host human embryonic kidney (HEK) 293 cells with 2 DNA constructs containing each protein's coding sequence. Cells were suspension cultured at 37° C. with 5% CO2 in […] 293 Expression Medium (Thermofisher). Whole cell membrane was prepared by harvesting the cell pellet, adding cold membrane buffer (50 mM Tris, pH7.5, 1× Roche COMPLETE EDTA-free protease inhibitor cocktail) 10 times volume of the cell pellets weight, lysing cell pellet on ice by using Dounce homogenizer, spinning at 200 g 4° C. for 15 min, collecting supernatant and spinning again at 25000 g 4° C. for 50 min, transferring pellet to Dounce homogenizer, re-suspending pellet by homogenizing in membrane buffer on ice to reach ˜25 mg/mL, then keeping whole cell membrane aliquots at −80° C.
Compounds were prepared in a 96-well U bottom plate using an Echo550 machine and 10 mM compound DMSO stock solution, followed by an 8-dose 5-fold serial dilutions protocol with final testing compound concentration ranging from 0.06 to 5000 nM, with DMSO back fill to 100 nL/well and n=2. […] The UniFilter-96 GF/B plates were pre-treated by adding 50 μl/well of 0.3% (v/v) PEI to UniFilter-96 GF/B plates. The plates were sealed and incubated at 4° C. for 3 hrs. Then, the plates were washed with ice-cold assay buffer 3 times. The radioligand binding assay was prepared by adding assay buffer diluted hEBP-DHCR7 membrane at 66.7 μg/ml x 150 μl/well into the 96-well compound plate to reach 10 μg membrane per well. Then, the assay buffer diluted [3H]-Compound 118A* was added at 25 nM×50 μl/well. Following this, the plate was centrifuged at 1000 rpm for 30 secs. The plate was then sealed and agitated at 600 rpm at 22° C. for 5 min, and then incubated at 22° C. for 3 hrs. The incubation was stopped by transferring the binding solution to the pre-treated UniFilter-96 GF/B plate, vacuum filtrated, and then washed four times with ice-cold assay buffer. Following this, the plates were dried at 37° C. for 45 min. The plates were then sealed at the bottom. 40 μl/well of scintillation cocktail was added to the plates. A MicroBeta2 microplate counter was then used to read the plate and analyze the data. For reference and test compounds, the results are expressed as % Inhibition, using the normalization equation: N=100-100×(U−C2)/(C1−C2), where U is the unknown value, C1 is the average of high controls, and C2 is the average value of low controls. The IC50 was determined by fitting percentage of inhibition as a function of compound concentrations with Hill equation using XLfit. Results are expressed as hEBP-DHCR7 Ki (uM) in Table 4. Ki was calculated as described above.

Each structure is given as a SMILES string.

Chain of human emopamil binding protein and human 7-dehydrocholesterol reductase co-expressing cell membrane (Q15125 whole entry): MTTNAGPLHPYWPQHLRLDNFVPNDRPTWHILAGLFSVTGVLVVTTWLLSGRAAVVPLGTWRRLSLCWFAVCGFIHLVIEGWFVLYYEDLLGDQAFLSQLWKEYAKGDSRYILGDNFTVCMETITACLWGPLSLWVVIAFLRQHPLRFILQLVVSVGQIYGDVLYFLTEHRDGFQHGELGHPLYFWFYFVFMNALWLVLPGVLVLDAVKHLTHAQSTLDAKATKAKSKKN

One may read the EC50 as the concentration at which the effect is half-maximal. The Ki is a dissociation constant, usually derived from enzyme kinetics or from competition with a known ligand. Lower therefore signals higher affinity. For `O=S1(=O)CC2(CCN(CCOc3ccc(F)cn3)CC2)C1` [Compound 229, 7-(2-((5-Fluoropyridin-2-yl)oxy)ethyl)-2-thia-7-azaspiro[3.5]nonane 2,2-dioxide], the concentration for a half-maximal effect (EC50) in the assay with EpiSC-derived OPCs is 135 nM; in assay [1], 34 nM. Moreover, affinity in assay [2] was put at a Ki of 110 nM.

Turning to `O=S1(=O)CC2(CCN(CCOc3ccc(-c4ccc(C(F)(F)F)nc4)cc3)CC2)C1` [Compound 238, 7-(2-(4-(6-(Trifluoromethyl)pyridin-3-yl)phenoxy)ethyl)-2-thia-7-azaspiro[3.5]nonane 2,2-dioxide], the EC50 in the assay on EpiSC-derived OPCs stood at 13.7 nM; in assay [1], 2.89 nM. The inhibition constant Ki in assay [2] amounted to 14.1 nM.

Turning to `CC(C)n1nc(C(F)(F)F)cc1OCCN1CCC2(CC1)CS(=O)(=O)C2` [Compound 239], the values for the EC50 (in the assay with EpiSC-derived OPCs; in assay [1]) were 374 nM and 39.8 nM, respectively. For the same compound, the affinity in assay [2], expressed as Ki, was 41.9 nM.

Regarding `C[C@H](Cc1ccc(C(F)(F)F)nc1)CN1CCC2(CC1)CS(=O)(=O)C2` (single isomer, unassigned) [Compound 217], the EC50 was 26 nM in the assay on EpiSC-derived OPCs and 8.3 nM in assay [1]. Moreover, the Ki in assay [2] was determined as 39.6 nM.

As for `C[C@@H](Cc1ccc(C(F)(F)F)nc1)CN1CC2(CCS(=O)(=O)CC2)C1` (single isomer, unassigned) [234B*], the EC50 came to 210 nM in the assay with EpiSC-derived OPCs and 35 nM in assay [1]. In addition, the Ki in assay [2] was 193 nM.

For `CC(Cc1ccc(C2CC2)cc1)CN1CCC2(C1)CS(=O)(=O)C2` (racemic) [Compound 108, 6-(3-(4-Cyclopropylphenyl)-2-methylpropyl)-2-thia-6-azaspiro[3.4]octane 2,2-dioxide], the EC50 amounted to 7.5 nM with EpiSC-derived OPCs and 5.5 nM in assay [1]. The Ki in assay [2] was 9.72 nM.

Regarding `CC(C)(CN1CCC2(C1)CS(=O)(=O)C2)Oc1ccc(C(F)(F)F)cc1` [Compound 120, 6-(2-Methyl-2-(4-(trifluoromethyl)phenoxy)propyl)-2-thia-6-azaspiro[3.4]octane 2,2-dioxide], the values for the EC50 (in the assay with EpiSC-derived OPCs; in assay [1]) were 6.4 nM and 4 nM, respectively. Moreover, the inhibitory constant (Ki) in assay [2] was 17.7 nM.

For `C[C@@H](CN1CCC2(CC1)CS(=O)(=O)C2)Oc1ccc(C(F)(F)F)cc1` (single isomer, unassigned) [227A*], the EC50 with EpiSC-derived OPCs is 7.6 nM; in assay [1], 3.2 nM. The compound further displayed a Ki in assay [2] of 15.3 nM.

As for `C[C@H](Cc1ccc(C(F)(F)F)nc1)CN1CCC2(C1)CS(=O)(=O)C2` (single isomer, unassigned) [118B*], the EC50 in the assay with EpiSC-derived OPCs came out at 140 nM; in assay [1], 54 nM. For the same compound, in assay [2], the Ki was 50.5 nM.

`O=S1(=O)CC2(CCN(CCOc3ccc([C@H]4CC[C@H](C(F)(F)F)CC4)nc3)CC2)C1` [247A*, 7-(2-((6-((trans)-4-(Trifluoromethyl)cyclohexyl)pyridin-3-yl)oxy)ethyl)-2-thia-7-azaspiro[3.5]nonane 2,2-dioxide]: the 50% effective concentration (EC50) stood at 22.8 nM with EpiSC-derived OPCs and 3.16 nM in assay [1]. Further, in assay [2], the affinity, expressed as Ki, was 5.72 nM.

As for `CC(C)(Cc1ccc(C(F)(F)F)nc1)CN1CC[C@]2(CCS(=O)(=O)C2)C1` (single isomer, unassigned) [Compound 148A], the EC50 in the assay on EpiSC-derived OPCs was determined as 31 nM; in assay [1], 4.9 nM. In assay [2], this compound displayed a Ki of 23.6 nM.

On to `C[C@@H](CN1CCC2(C1)CS(=O)(=O)C2)Oc1ccc(C(F)(F)F)cc1` (single isomer, unassigned) [115B*], for which the results for the EC50 (in the assay on EpiSC-derived OPCs; in assay [1]) were 29 nM and 15 nM, respectively. In assay [2], this compound showed a Ki of 13.5 nM.

On to `O=S1(=O)CC2(CCN(CCOc3ccc(C(F)(F)F)cc3)CC2)C1` [Compound 226, 7-(2-(4-(Trifluoromethyl)phenoxy)ethyl)-2-thia-7-azaspiro[3.5]nonane 2,2-dioxide], for which the EC50 was determined as 2.2 nM with EpiSC-derived OPCs and 0.88 nM in assay [1]. The Ki in assay [2] came out at 9.29 nM.

For the compound `O=S1(=O)CC2(CCN(CC3(Oc4ccc(C(F)(F)F)cc4)CCC3)CC2)C1` [Compound 222, 7-((1-(4-(Trifluoromethyl)phenoxy)cyclobutyl)methyl)-2-thia-7-azaspiro[3.5]nonane 2,2-dioxide], the EC50 was determined as 16 nM in the assay on EpiSC-derived OPCs and 3.7 nM in assay [1]. This compound returned a Ki in assay [2] of 3.7 nM.

On to `CC(Cc1ccc(F)c(F)c1)CN1CCC2(CC1)CS(=O)(=O)C2` (single isomer, unassigned) [212A*, 7-(3-(3,4-Difluorophenyl)-2-methylpropyl)-2-thia-7-azaspiro[3.5]nonane 2,2-dioxide], for which the figures for the EC50 (in the assay on EpiSC-derived OPCs; in assay [1]) were 4.7 nM and 2.36 nM, respectively. In addition, the inhibitory constant (Ki) in assay [2] amounted to 15.6 nM.

As for `C[C@@H](Cc1ccc(C(F)(F)F)cn1)CN1CCC2(C1)CS(=O)(=O)C2` (single isomer, unassigned) [121A*], the results for the half-maximal effective concentration (EC50) (with EpiSC-derived OPCs; in assay [1]) were 23 nM and 6.1 nM, respectively. This compound yielded a Ki in assay [2] of 115 nM.

With `CC(C)(CN1CCC2(CC1)CS(=O)(=O)C2)Oc1ccc(C(F)(F)F)c(F)c1` [Example 208, 7-(2-(3-Fluoro-4-(trifluoromethyl)phenoxy)-2-methylpropyl)-2-thia-7-azaspiro[3.5]nonane 2,2-dioxide], the EC50 in the assay with EpiSC-derived OPCs came to 1.52 nM; in assay [1], 0.69 nM. In addition, the affinity in assay [2], expressed as Ki, was 12.8 nM.
